Earlier results as cited in publication PMC11317963 (Neural Regeneration Research, 2024).

Experiments:
[1] = system: permanent middle cerebral artery occlusion model; details: compared with VEGF; ref Pignataro et al., 2015
[2] = ref Diana et al., 2008; Finetti et al., 2012
[3] = ref Zhang et al., 2000

thermal stability [2] | Substance | vessel permeability [1] | half-life in vivo [3]
relatively high thermal stability | KLTWQELYQLKYKGI [QK] | decrease vessel permeability compared with VEGF | –
– | VEGF | – | relatively short
